{
  "source": "paper PMC11564776",
  "about": "“Enzyme stabilisation due to incorporation of a fluorinated non-natural amino acid at the protein surface” (Scientific Reports, 2024)",
  "target": "T1, WT transketolase (WT TK) (Escherichia coli, UniProt P27302)",
  "T1 construct": "gene tktA; full length, N-terminal His6 tag (plasmid pQR791), Ni-NTA purified, tag cleavage not mentioned; homodimer of 73-74 kDa monomers; WT expressed in E. coli XL10-Gold, variants in E. coli C321.dA.exp",
  "T1 sequence (P27302 whole entry)": "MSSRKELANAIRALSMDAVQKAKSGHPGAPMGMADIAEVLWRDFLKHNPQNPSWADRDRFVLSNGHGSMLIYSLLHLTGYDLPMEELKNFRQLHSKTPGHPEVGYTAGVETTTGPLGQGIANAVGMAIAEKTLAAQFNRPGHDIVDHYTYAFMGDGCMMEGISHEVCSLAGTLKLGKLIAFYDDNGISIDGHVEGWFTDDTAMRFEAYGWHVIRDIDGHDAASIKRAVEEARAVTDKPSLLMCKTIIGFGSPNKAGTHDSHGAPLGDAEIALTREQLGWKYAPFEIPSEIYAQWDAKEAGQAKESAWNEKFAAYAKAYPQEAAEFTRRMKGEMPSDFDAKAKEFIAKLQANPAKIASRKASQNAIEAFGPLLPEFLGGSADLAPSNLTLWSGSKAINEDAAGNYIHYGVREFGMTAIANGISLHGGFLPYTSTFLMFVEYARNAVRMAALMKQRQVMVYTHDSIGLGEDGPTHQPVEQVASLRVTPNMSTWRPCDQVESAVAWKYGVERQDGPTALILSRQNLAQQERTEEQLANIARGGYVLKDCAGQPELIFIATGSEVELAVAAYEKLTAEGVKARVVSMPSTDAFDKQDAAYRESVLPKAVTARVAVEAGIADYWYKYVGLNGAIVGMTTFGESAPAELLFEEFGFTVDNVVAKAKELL",
  "test": "HPLC of erythrulose formation, initial velocities, Michaelis-Menten fit",
  "assay_type": "biochemical",
  "conditions": "50 mM HPA, 1.36 mM ThDP, 5.1 mM MgCl2, 33 mM Tris.HCl, pH 7.0, assay 21 °C, pre-incubated 15 min at 21 °C, standard error in parentheses, read-out: Km (GA)",
  "from_the_text": "HPLC of erythrulose formation, initial velocities, Michaelis-Menten fit on WT transketolase (WT TK)",
  "note": "Like-named read-outs stand apart in the source and are kept apart here.",
  "data": [
    {"smiles": "O=CCO", "note": "[GA]", "values": [
      {"measurement": "Km", "setting": "non-natural amino acid at 316, 84% incorporation with 9% K316F", "result": 14, "unit": "mM"},
      {"measurement": "Km", "setting": "non-natural amino acid at 316, almost 100% incorporation", "result": 18, "unit": "mM"}
    ]}
  ]
}
